Experimental data as given in patent US7754200B2, “Phosphate transport inhibitors” (Genzyme Corporation, priority 2002, dated 2010).

The compounds below were run on phosphate uptake by rabbit intestinal Brush Border Membrane Vesicles (BBMV) (assay: 33PO4 Uptake in Rabbit Intestinal BBMV High Throughput Screening (HTS) assay). Details: inhibition of 33PO4 uptake, 15 minutes.
Format: biochemical
Text: The activity of compounds of the present invention can be assessed using suitable assays, such as the ^33PO4 Uptake In Rabbit Intestinal BBMV High Throughput Screening (HTS) assay, as described in the Example 28. Compounds of the present invention can also be identified by virtue of their ability to inhibit the absorption of phosphate in vivo, for example, in the gastrointestinal tract of a laboratory animal.
The following example outlines the procedures required for in vitro measurement of the inhibition of phosphate uptake by rabbit intestinal Brush Border Membrane Vesicles (BBMV).
Rabbit Intestinal Brush Border Membrane Vesicles (BBMV) were isolated from mucosal scrapings of the upper small intestine (duodenum) of male New Zealand White rabbits. The scrapings were divided into 2 g aliquots in cryopreservation vials, frozen in liquid nitrogen, and stored at −80° C.
The following procedure was performed for each 2 g sample of BBMV mucosal scraping. Buffer volumes and container sizes were adjusted appropriately for the number of 2 g samples used. The entire preparation was performed on ice, unless otherwise stated.
Mucosal scrapings (2 g per tube) were thawed in a 37° C. water bath for 3 minutes and then placed on ice. The scrapings were suspended with a total of 7.5 mL of 300 MET, and transferred to a 250 mL Coming tube on ice. To the suspension was added 30 mL cold (4° C.) deionized water (dH2O). The suspension was homogenized with a tissue homogenizer (Polytron) on high speed for two minutes. A stir bar and MgCl2 (81.3 mg) were added. The suspension was mixed well by inverting the closed tube. The suspension was stirred on ice, ensuring that a good vortex is achieved with the stir bar, for 40 minutes. The suspension was transferred to a chilled centrifuge tube and spun at 4000×g for 15 minutes. The supernatant was transferred to a new chilled centrifuge tube and spun at 32000×g for 30 minutes. The supernatant was discarded and the pellet was re-suspended with 34 mL cold 60 MET. The suspension was homogenized with a Dounce homogenizer with 8 strokes. The suspension was transferred to a fresh 250 mL Coming tube. A stir bar and 69.1 mg MgCl2 were added. The suspension was stirred well on ice for 10 minutes. The suspension was transferred to a chilled centrifuge tube and spun at 4000×g for 15 minutes. The supernatant was transferred to a new chilled centrifuge tube and spun at 32000×g for 30 minutes. The supernatant was discarded. At this stage, the preparation could be continued or this pellet (P4) could be frozen in liquid nitrogen and stored at −80° C. When needed, this pellet could be allowed to thaw at room temperature for 5 minutes. Continuing the preparation, the pellet was re-suspended with 34 mL cold 280 MH. The suspension was homogenized in a Dounce homogenize with 8 strokes. The suspension was transferred to a new chilled centrifuge tube and spun at 32000×g for 30 minutes. The supernatant was discarded. To the pellet was added 500 μL 280 MH and the pellet was re-suspended very carefully with a 1 mL tuberculin syringe with a 25-gauge needle with care not to create bubbles. Once the entire pellet was suspended, the suspension was transferred to a chilled 1.5 mL microfuge tube. The suspension was evenly dispersed by bringing the suspension up into the syringe through the 25-gauge needle, and back out again eight times with care not to create bubbles. The total protein concentration was determined by performing a Bradford Protein Assay. Using that value, the BBMV were diluted with 280 MH to reach approximately 0.5-2.0 mg/mL. The solution was used as soon as possible for uptake studies.
^33PO4 Uptake in Rabbit Intestinal BBMV
The following experiment was performed using a Beckman Multimek 96-tip robotic pipettor. The following outlines the preparation required to screen one 96-well plate of compounds. However, multiple plates could be screened in one experiment. […]

IC50 [µM]	Compound
< 100	CCCCCCCCCCP(=O)(O)CP(=O)(O)O [Compound 1]
< 100	C=CCCCCCCCCCP(=O)(O)C(F)(F)P(=O)(O)O [Compound 2]
< 100	C=CCCCCCCCCCP(=O)(O)C(F)P(=O)(O)O (centres unmarked) [Compound 3]
< 100	C=CCCCCCCCCCP(=O)(O)CP(=O)(O)O [Compound 4]
< 100	O=P(O)(O)CP(=O)(O)c1ccc(C(F)(F)F)cc1 [Compound 5]
< 100	O=P(O)(O)CP(=O)(O)CCCCCCCCCC(Br)CBr (centres unmarked) [Compound 6]
< 100	O=C1c2ccccc2C(=O)N1CCCCCCCCCCCP(=O)(O)CP(=O)(O)O [Compound 8]
100 to 300	O=C(NCCCCCCCCCCCP(=O)(O)CP(=O)(O)O)c1ccc(OC(F)(F)F)cc1 [Compound 10]
100 to 300	C=CCCC(CCCCCCCCCC)P(=O)(O)CP(=O)(O)O (centres unmarked) [Compound 11]
100 to 300	O=P(O)(O)CP(=O)(O)CCCCCCCCCCCNS(=O)(=O)c1ccc(OC(F)(F)F)cc1 [Compound 14]
100 to 300	C=CCCCCCCCCCP(=O)(O)CP(=O)(O)CP(=O)(O)O [Compound 16]
300 to 700	C=CCCCP(=O)(O)C(CCCCCCCCCC)P(=O)(O)O (centres unmarked) [Compound 17]
300 to 700	CCCCCCCCCC(CCCCCN)P(=O)(O)CP(=O)(O)O (centres unmarked) [Compound 18]
300 to 700	O=P(O)(O)CP(=O)(O)CCCC1CCCCC1 [Compound 19]
700 to 1000	C=CCCCCCCCCCP(=O)(O)C(CCCCC)P(=O)(O)O (centres unmarked) [Compound 21]
700 to 1000	O=P(O)(O)CP(=O)(O)CCCCCCCCCC1CO1 (centres unmarked) [Compound 22]
700 to 1000	C=CCCCCCCCCCP(=O)(O)C(CCCCC)P(=O)(O)O (centres unmarked) [Compound 23]
700 to 1000	CCC(=O)NCCCCCCCCCCCP(=O)(O)CP(=O)(O)O [Compound 24]
700 to 1000	O=P(O)(O)CP(=O)(O)CCCCCCCCCCCO [Compound 25]
700 to 1000	CCCCCCCCCCC(P(C)(=O)O)P(=O)(O)O (centres unmarked) [Compound 26]
1000 to 1600	NCCCCCCCCCCCP(=O)(O)CP(=O)(O)O [Compound 27]
1000 to 1600	CCCCCCCCCC(CCCCCNC(=O)CC)P(=O)(O)CP(=O)(O)O (centres unmarked) [Compound 28]
1000 to 1600	O=P(O)(O)CP(=O)(O)C/C=C/c1ccccc1 [Compound 30]
1000 to 1600	C=CCCCP(=O)(O)C(Cc1ccc(-c2ccccc2)cc1)P(=O)(O)O (centres unmarked) [Compound 32]
> 1600	C=CC(=O)NCCCCCCCCCCCP(=O)(O)CP(=O)(O)O [Compound 35]
> 1600	C=CCCCP(=O)(O)C(CCCC1CCCCC1)P(=O)(O)O (centres unmarked) [Compound 36]

Compound	IC50 [µM]
O=P(O)(O)CP(=O)(O)CCCCCBr [Compound 29]	1000 to 1600
O=P(O)(O)CP(=O)(O)C1CCCCC1 [Compound 33]	> 1600
C=CCCCP(=O)(O)CP(=O)(O)O [Compound 34]	> 1600
